Patent US10246437B2, “Crystal form of neratinib maleate and preparation method therefor” (CRYSTAL PHARMATECH CO., LTD, priority 2015, dated 2019)
Converted amounts (≈) assume the structure as drawn. “Also recorded” adds a separate entry of the source. Counter-ions that a name gives are not always drawn.

How the values were obtained:
[1] = Stability comparison: 1:1 mixed suspension of Form C and Form II stirred in solvent, solid tested by XRPD; type: physicochemical; conditions: nitromethane, 24 hours, Form C versus Form II
Description: 10.0 mg of maleate crystalline Form C and maleate crystalline Form II in CN101918390B were mixed at a ratio of 1:1 and added into 1.0 mL of solvent to obtain a suspension. The suspension was magnetically stirred at 500 rpm at 25° C. for 24 hours, and centrifuged to give a solid which was tested by XRPD.

[2] = Hygroscopicity by dynamic vapor sorption (DVS); type: physicochemical; conditions: DVS at 25° C., 80% RH; maleate
Description: Hygroscopicity of 10 mg of Form C of the present invention was tested using dynamic vapor sorption (DVS) at 25° C. […].
About hygroscopicity characterization description and definition of hygroscopicity (Chinese Pharmacopoeia 2010 edition appendix XIXJ Drug hygroscopic test guidelines, test at 25° C.+/−1° C., 80% Relative Humidity) • deliquescent: sufficient water is absorbed to form a liquid; • very hygroscopic: increase in mass is equal to or greater than 15 percent; • hygroscopic: increase in mass is less than 15 percent and equal to or greater than 2 percent; • slightly hygroscopic: increase in mass is less than 2 percent and equal to or greater than 0.2 percent. • no or almost no hygroscopic: increase in mass is less than 0.2%

[3] = Stability assessment on storage, XRPD patterns collected after storage; type: physicochemical; conditions: maleate
Description: Form B in the present invention were stored under 5° C., 25° C./60% relative humidity and 40° C./75% RH for 90 days. XRPD patterns were collected after storage.
Form C of the present invention was stored under 5° C., 25° C./60% RH and 40° C./75% relative humidity for 330 days. XRPD patterns were collected after storage.

[4] = Solubility comparison in pH 1.8 SGF and high purity water, saturated solutions determined by HPLC; type: physicochemical; conditions: for solubility at 1 h / solubility at 4 h / solubility at 24 h: thermodynamic from solid; for Solubility in comparison to maleate Form II in CN101918390B: pH 1.8 SGF and high purity water, after 1, 4 and 24 hours; for Solubility: maleate
Description: Maleate crystalline Form A, Form B of the present invention and maleate Form II in CN101918390B were added in pH 1.8 SGF (simulated gastric fluid), and in high purity water to obtain suspensions. Concentrations in the saturation solutions were determined after 1 hour, 4 hours and 24 hours by HPLC.

[5] = as disclosed in CN101918390B; cited from earlier work

SMILES: CCOc1cc2ncc(C#N)c(Nc3ccc(OCc4ccccn4)c(Cl)c3)c2cc1NC(=O)/C=C/CN(C)C [Form C, (2E)-N-[4-[[3-chloro-4-[(pyridin-2-yl)methoxy]phenyl]amino]-3-cyano-7-ethoxyquinolin-6-yl]-4-(dimethylamino)but-2-enamide maleate]
- Stability comparison (form conversion in mixed suspension) ([1]; maleate): more stable than maleate crystalline Form II
- weight increment under 80% Relative Humidity [2]: 1.01%
- Form Change ([3]; 5° C., 330 days): remains unchanged; also recorded: Form C doesn't change
- Form Change ([3]; 25° C./60% RH, 330 days): remains unchanged; also recorded: Form C doesn't change
- Form Change ([3]; 40° C./75% RH, 330 days): remains unchanged; also recorded: Form C doesn't change

SMILES: CCOc1cc2ncc(C#N)c(Nc3ccc(OCc4ccccn4)c(Cl)c3)c2cc1NC(=O)/C=C/CN(C)C [Form A, (2E)-N-[4-[[3-chloro-4-[(pyridin-2-yl)methoxy]phenyl]amino]-3-cyano-7-ethoxyquinolin-6-yl]-4-(dimethylamino)but-2-enamide maleate]
- solubility at 1 h ([4]; pH 1.8, simulated gastric fluid, pH 1.8 SGF, 1 h): > 8400 µg/mL
- solubility at 4 h ([4]; pH 1.8, simulated gastric fluid, pH 1.8 SGF, 4 h): > 8400 µg/mL
- solubility at 24 h ([4]; pH 1.8, simulated gastric fluid, pH 1.8 SGF, 24 h): > 8400 µg/mL
- Solubility in comparison to maleate Form II in CN101918390B [4]: higher solubility
- solubility at 1 h ([4]; water, H2O (high purity water), 1 h): > 3900 µg/mL
- solubility at 4 h ([4]; water, H2O (high purity water), 4 h): > 3900 µg/mL
- solubility at 24 h ([4]; water, H2O (high purity water), 24 h): > 3900 µg/mL

SMILES: CCOc1cc2ncc(C#N)c(Nc3ccc(OCc4ccccn4)c(Cl)c3)c2cc1NC(=O)/C=C/CN(C)C [Form I]
- Form conversion by absorbing moisture in the air [5]: can easily convert to Form II

SMILES: CCOc1cc2ncc(C#N)c(Nc3ccc(OCc4ccccn4)c(Cl)c3)c2cc1NC(=O)/C=C/CN(C)C [Form II, reference compound]
- Stability comparison (form conversion in mixed suspension) [1]: transferred to crystalline Form C
- solubility at 1 h ([4]; simulated gastric fluid (SGF), simulated gastric fluid, pH 1.8 SGF, 1 h): 3300 µg/mL (≈ 5.92 mM)
- solubility at 4 h ([4]; simulated gastric fluid (SGF), simulated gastric fluid, pH 1.8 SGF, 4 h): 3200 µg/mL (≈ 5.74 mM)
- solubility at 24 h ([4]; simulated gastric fluid (SGF), simulated gastric fluid, pH 1.8 SGF, 24 h): 3100 µg/mL (≈ 5.56 mM)
- solubility at 1 h ([4]; H2O (high purity water), 1 h): 1000 µg/mL (≈ 1.8 mM)
- solubility at 4 h ([4]; H2O (high purity water), 4 h): 940 µg/mL (≈ 1.69 mM)
- solubility at 24 h ([4]; H2O (high purity water), 24 h): 940 µg/mL (≈ 1.69 mM)

SMILES: CCOc1cc2ncc(C#N)c(Nc3ccc(OCc4ccccn4)c(Cl)c3)c2cc1NC(=O)/C=C/CN(C)C [Form B, (2E)-N-[4-[[3-chloro-4-[(pyridin-2-yl)methoxy]phenyl]amino]-3-cyano-7-ethoxyquinolin-6-yl]-4-(dimethylamino)but-2-enamide maleate]
- Solubility ([4]; H2O (high purity water), 1 h): >5400 µg/mL
- Solubility ([4]; H2O (high purity water), 4 h): >5400 µg/mL
- Solubility ([4]; H2O (high purity water), 24 h): >5400 µg/mL
- Solubility in comparison to maleate Form II in CN101918390B [4]: higher solubility
- Solubility ([4]; pH 1.8 SGF, 1 h): >6700 µg/mL
- Solubility ([4]; pH 1.8 SGF, 4 h): >6700 µg/mL
- Solubility ([4]; pH 1.8 SGF, 24 h): >6700 µg/mL
- Form Change ([3]; 5° C., 90 days): remains unchanged; also recorded: Form B doesn't change
- Form Change ([3]; 25° C./60% RH, 90 days): remains unchanged; also recorded: Form B doesn't change
- Form Change ([3]; 40° C./75% RH, 90 days): remains unchanged; also recorded: Form B doesn't change
